The values below come from patent US20240360148A1 (SUVALENT THERAPEUTICS, INC., priority 2021, published 2024).

SAE1, sequence (Q9UBE0 whole entry): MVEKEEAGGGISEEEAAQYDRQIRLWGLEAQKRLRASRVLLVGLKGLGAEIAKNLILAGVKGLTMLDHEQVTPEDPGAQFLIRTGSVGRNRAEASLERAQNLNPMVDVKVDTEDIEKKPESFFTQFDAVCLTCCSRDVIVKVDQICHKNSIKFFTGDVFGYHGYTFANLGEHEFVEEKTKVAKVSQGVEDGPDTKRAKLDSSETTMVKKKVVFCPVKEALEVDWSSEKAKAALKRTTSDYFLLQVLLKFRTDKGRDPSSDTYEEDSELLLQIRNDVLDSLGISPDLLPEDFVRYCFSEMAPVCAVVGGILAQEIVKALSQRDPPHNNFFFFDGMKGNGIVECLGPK
SAE1, sequence (Q9UBT2 whole entry): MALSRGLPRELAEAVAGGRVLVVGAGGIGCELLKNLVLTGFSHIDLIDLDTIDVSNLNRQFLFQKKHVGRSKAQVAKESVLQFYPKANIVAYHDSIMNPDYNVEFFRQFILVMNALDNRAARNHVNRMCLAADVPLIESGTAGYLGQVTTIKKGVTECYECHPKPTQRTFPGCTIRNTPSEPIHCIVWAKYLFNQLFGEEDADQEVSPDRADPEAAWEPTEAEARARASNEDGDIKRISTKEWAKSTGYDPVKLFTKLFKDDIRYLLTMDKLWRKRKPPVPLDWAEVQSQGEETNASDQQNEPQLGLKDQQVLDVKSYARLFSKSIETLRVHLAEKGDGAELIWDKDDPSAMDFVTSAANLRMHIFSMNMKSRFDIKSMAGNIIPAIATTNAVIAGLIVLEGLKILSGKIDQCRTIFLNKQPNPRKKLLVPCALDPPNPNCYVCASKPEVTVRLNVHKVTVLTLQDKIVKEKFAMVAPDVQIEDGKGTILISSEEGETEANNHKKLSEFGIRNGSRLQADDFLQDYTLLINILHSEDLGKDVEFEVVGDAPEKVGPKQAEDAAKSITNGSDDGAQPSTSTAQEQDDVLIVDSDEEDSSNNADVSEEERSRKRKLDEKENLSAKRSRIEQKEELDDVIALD

This assay has as its target SAE1 (Homo sapiens (Human), UniProt Q9UBE0+Q9UBT2). In words: SAE High Throughput Biochemical Assay (HTRF), 15 min preincubation. The following applies: read-out: 15 min preincubation HTRF IC50 (μM) Ave, SAE1 12.5 nM, ATP 100 μM. The procedure: Assay buffer was prepared [50 mM HEPES, pH 7.5, 0.1% BSA and 10 mM MgCl2] as was the Stop Buffer [100 mM HEPES, pH 7.5, 0.05% Tween20, and 410 mM KF]. The 2×Reaction Buffer [80 nM SUMO-GST, 80 nM UBC9-His, 200 μM ATP and diluted in Assay Buffer] and Antibody Reaction Mix [13.34 nM anti-GSTXL665, 1.66 nM anti-His EuK and Diluted in Stop Buffer] were also prepared. Compounds were dissolved at 200×in DMSO in a 384-well plate. Serial dilutions were performed in DMSO for each compound, and then each concentration was diluted another 50-fold in Assay Buffer, to 4× the final concentration. 2.5 μL of each concentration was transferred into its own well in a 384-well plate. SAE1 was then diluted to 4× in Assay Buffer, and 2.5 μL of 4×SAE1 was mixed into each compound-containing well. After incubating for 15 minutes at RT, 5 μL of 2×Reaction Buffer was mixed into every well. Then after another 45 minutes at RT, 10 μL of Antibody Reaction Mix was added and mixed into every well. This plate was then read on an HTRF-compatible plate reader after 2 hours at RT, and again after sitting at RT overnight. [Final Component Concentrations: SAE1: 12.5 nM; SUMO-GST: 40 nM; UBC9-His: 40 nM; Anti-GST-XL665: 6.67 nM; Anti-His-EuK: 0.83 nM; and ATP: 100 μM] Alternatively, the compounds are tested at a single concentration of 25 micromolar and the percent of control is measured.
Regarding `CCn1cc(-c2c(F)cccc2[C@@H]2CN(C(=O)/C=C/CNC3CCN(C(C)=O)C3)Cc3sc(C#N)cc32)c(C(F)(F)F)n1` (stereo partly drawn) [Example 58, (4S)-6-((E)-4-((1-acetylpyrrolidin-3-yl)amino)but-2-enoyl)-4-(2-(1-ethyl-3-(trifluoromethyl)-1 H-pyrazol-4-yl)-3-fluorophenyl)-4,5,6,7-tetrahydrothieno[2,3-c]pyridine-2-carbonitrile], the IC50 came to 6.06 µM. In the case of `CN(C)C/C=C/C(=O)N1Cc2sc(C#N)cc2[C@H](c2ccccc2-c2cn(-c3ncccc3F)nc2C(F)(F)F)C1` [Example 158, (S,E)-6-(4-(Dimethylamino)but-2-enoyl)-4-(2-(1-(3-fluoropyridin-2-yl)-3-(trifluoromethyl)-1H pyrazol-4-yl)phenyl)-4,5,6,7-tetrahydrothieno[2,3-c]pyridine-2-carbonitrile], the half-maximal inhibitory concentration (IC50) came to 6.37 µM. In the case of `CN(C)C/C=C/C(=O)N1Cc2sc(C#N)cc2[C@H](c2ccccc2-c2cn(-c3ccnc(N)c3)nc2C(F)(F)F)C1` [Example 160, (S, E)-4-(2-(1-(2-Aminopyridin-4-yl)-3-(trifluoromethyl)-1 H-pyrazol-4-yl)phenyl)-6-(4-(dimethylamino)but-2-enoyl)-4,5,6,7-tetrahydrothieno[2,3-c]pyridine-2-carbonitrile] it was 24.4 µM; in that of `CCn1cc(-c2ccccc2[C@@H]2CN(C(=O)/C=C/C3(N)CC3)Cc3sc(C#N)cc32)c(C(F)(F)F)n1` [Example 109, (S, E)-6-(3-(1-Aminocyclopropyl)acryloyl)-4-(2-(1-ethyl-3-(trifluoromethyl)-1 H-pyrazol-4-yl)phenyl)-4,5,6,7-tetrahydrothieno[2,3-c]pyridine-2-carbonitrile], 26.5 µM; in that of `CCn1cc(-c2ccccc2[C@@H]2CN(C(=O)C#CC3CCCNC3)Cc3sc(C#N)cc32)c(C(F)(F)F)n1` (stereo partly drawn) [Example 145, (4S)-4-(2-(1-Ethyl-3-(trifluoromethyl)-1 H-pyrazol-4-yl)phenyl)-6-(3-(piperidin-3-yl)propioloyl)-4,5,6,7-tetrahydrothieno[2,3-c]pyridine-2-carbonitrile], 5.62 µM. Under `CCn1cc(-c2ccccc2[C@@H]2CN(C(=O)/C=C/C(C)(C)N)Cc3sc(C#N)cc32)c(C(F)(F)F)n1` [Example 37, (S, E)-6-(4-amino-4-methylpent-2-enoyl)-4-(2-(1-ethyl-3-(trifluoromethyl)-1 H-pyrazol-4-yl)phenyl)-4,5,6,7-tetrahydrothieno[2,3-c]pyridine-2-carbonitrile] stands above 25 µM; under `CN(C)C/C=C/C(=O)N1Cc2sc(C#N)cc2[C@H](c2ccccc2-c2cn(S(C)(=O)=O)nc2C(F)(F)F)C1` [Example 168, (S, E)-6-(4-(Dimethylamino)but-2-enoyl)-4-(2-(1-(methylsulfonyl)-3-(trifluoromethyl)-1 H pyrazol-4-yl)phenyl)-4,5,6,7-tetrahydrothieno[2,3-c]pyridine-2-carbonitrile], 18.8 µM.

Regarding `CCn1cc(-c2ccccc2C2CN(C(=O)/C=C/CN(C)C)Cc3sc(C#N)c(F)c32)c(C(F)(F)F)n1` (stereo not drawn) [Example 213, (E)-6-(4-(dimethylamino)but-2-enoyl)-4-(2-(1-ethyl-3-(trifluoromethyl)-1 H pyrazol-4-yl)phenyl)-3-fluoro-4,5,6,7-tetrahydrothieno[2,3-c]pyridine-2-carbonitrile], the IC50 was found to be 8.81 µM. In the case of `CCn1cc(-c2ccccc2[C@@H]2CN(C(=O)/C=C/[C@H](COC)NC)Cc3sc(C#N)cc32)c(C(F)(F)F)n1` [Example 86, (S)-4-(2-(1-Ethyl-3-(trifluoromethyl)-1 H-pyrazol-4-yl)phenyl)-6-((R, E)-5-methoxy-4-(methylamino)pent-2-enoyl)-4,5,6,7-tetrahydrothieno[2,3-c]pyridine-2-carbonitrile] it was 9.1 µM; in that of `CCOC(=O)Cn1cc(-c2ccccc2[C@@H]2CN(C(=O)/C=C/CN(C)C)Cc3sc(C#N)cc32)c(C(F)(F)F)n1` [Example 169, Ethyl (S,E)-2-(4-(2-(2-cyano-6-(4-(dimethylamino)but-2-enoyl)-4,5,6,7-tetrahydrothieno[2,3-c]pyridin-4-yl)phenyl)-3-(trifluoromethyl)-1 H-pyrazol-1-yl)acetate], 14.5 µM; in that of `CN(C)C/C=C/C(=O)N1Cc2sc(C#N)cc2[C@H](c2ccccc2-c2cn(CC(F)(F)F)nc2C(F)(F)F)C1` [Example 19, (S, E)-6-(4-(Dimethylamino)but-2-enoyl)-4-(2-(1-(2,2,2-trifluoroethyl)-3-(trifluoromethyl)-1 H-pyrazol-4-yl)phenyl)-4,5,6,7-tetrahydrothieno[2,3-c]pyridine-2-carbonitrile], 6.12 µM. Under `CCn1cc(-c2ccccc2[C@@H]2CN(C(=O)/C=C/CNC3(C)CCOC3)Cc3sc(C#N)cc32)c(C(F)(F)F)n1` (stereo partly drawn) [Example 97, (4S)-4-(2-(1-Ethyl-3-(trifluoromethyl)-1 H-pyrazol-4-yl)phenyl)-6-((E)-4-((3-methyltetrahydrofuran-3-yl)amino)but-2-enoyl)-4,5,6,7-tetrahydrothieno[2,3-c]pyridine-2-carbonitrile] stands 2.76 µM. In the case of `CCn1cc(-c2c(F)cccc2[C@@H]2CN(C(=O)/C=C/CNC3CCN(C(C)=O)CC3)Cc3sc(C#N)cc32)c(C(F)(F)F)n1` [Example 57, (S, E)-6-(4-((1-acetylpiperidin-4-yl)amino)but-2-enoyl)-4-(2-(1-ethyl-3-(trifluoromethyl)-1 H-pyrazol-4-yl)-3-fluorophenyl)-4,5,6,7-tetrahydrothieno[2,3-c]pyridine-2-carbonitrile] it was above 25 µM; in that of `CCn1cc(-c2ccccc2[C@@H]2CN(C(=O)/C=C/CN3CCC(c4ccccc4)C3)Cc3sc(C#N)cc32)c(C(F)(F)F)n1` (stereo partly drawn) [Example 35, (4S)-4-(2-(1-ethyl-3-(trifluoromethyl)-1 H-pyrazol-4-yl)phenyl)-6-((E)-4-(3-phenylpyrrolidin-1-yl)but-2-enoyl)-4,5,6,7-tetrahydrothieno[2,3-c]pyridine-2-carbonitrile], above 25 µM. As for `CCn1cc(-c2ccccc2[C@@H]2CN(C(=O)/C=C/[C@@H](C)NC)Cc3sc(C#N)cc32)c(C(F)(F)F)n1` [Example 87, (S)-4-(2-(1-Ethyl-3-(trifluoromethyl)-1 H-pyrazol-4-yl)phenyl)-6-((R, E)-4-(methylamino)pent-2-enoyl)-4,5,6,7-tetrahydrothieno[2,3-c]pyridine-2-carbonitrile], the IC50 stood at 18.2 µM. Under `CCn1cc(-c2c(C3CN(C(=O)/C=C/CN(C)C)Cc4sc(C#N)cc43)ccc(F)c2Cl)c(C(F)(F)F)n1` (stereo not drawn) [Example 187, (E)-4-(3-Chloro-2-(1-ethyl-3-(trifluoromethyl)-1 H-pyrazol-4-yl)-4-fluorophenyl)-6-(4-(dimethylamino)but-2-enoyl)-4,5,6,7-tetrahydrothieno[2,3-c]pyridine-2-carbonitrile] stands 8.1 µM; under `CN(C)C/C=C/C(=O)N1Cc2sc(C#N)cc2[C@H](c2ccccc2-c2cn(CCCC(=O)O)nc2C(F)(F)F)C1` [Example 174, (S, E)-4-(4-(2-(2-Cyano-6-(4-(dimethylamino)but-2-enoyl)-4,5,6,7-tetrahydrothieno[2,3-c]pyridin-4-yl)phenyl)-3-(trifluoromethyl)-1H pyrazol-1-yl)butanoic acid], 12.5 µM; under `CCn1cc(-c2nc(N)ccc2C2CN(C(=O)/C=C/CN(C)C)Cc3sc(C#N)cc32)c(C(F)(F)F)n1` (stereo not drawn) [Example 192, (E)-4-(6-Amino-2-(1-ethyl-3-(trifluoromethyl)-1 H-pyrazol-4-yl)pyridin-3-yl)-6-(4-(dimethylamino)but-2-enoyl)-4,5,6,7-tetrahydrothieno[2,3-c]pyridine-2-carbonitrile], above 25 µM. Under `CCn1cc(-c2c(F)cccc2[C@@H]2CN(C(=O)/C=C/[C@@H](C)NC)Cc3sc(C#N)cc32)c(C(F)(F)F)n1` [Example 88, (S)-4-(2-(1-Ethyl-3-(trifluoromethyl)-1H pyrazol-4-yl)-3-fluorophenyl)-6-((R,E)-4-(methylamino)pent-2-enoyl)-4,5,6,7-tetrahydrothieno[2,3-c]pyridine-2-carbonitrile] stands 2.7 µM; under `CCn1cc(-c2ccc(O)cc2C2CN(C(=O)/C=C/CN(C)C)Cc3sc(C#N)cc32)c(C(F)(F)F)n1` (stereo not drawn) [Example 205, (E)-6-(4-(Dimethylamino)but-2-enoyl)-4-(2-(1-ethyl-3-(trifluoromethyl)-1 H-pyrazol-4-yl)-5-hydroxyphenyl)-4,5,6,7-tetrahydrothieno[2,3-c]pyridine-2-carbonitrile], above 25 µM; under `CCn1cc(-c2ccccc2[C@@H]2CN(C(=O)/C=C/C(c3ccccc3)N(C)C)Cc3sc(C#N)cc32)c(C(F)(F)F)n1` (stereo partly drawn) [Example 26, (4S)-6-((E)-4-(Dimethylamino)-4-phenylbut-2-enoyl)-4-(2-(1-ethyl-3-(trifluoromethyl)-1 H-pyrazol-4-yl)phenyl)-4,5,6,7-tetrahydrothieno[2,3-c]pyridine-2-carbonitrile], 7.92 µM.

For orientation: IC50 means the concentration that inhibits the measured activity by half.
